Test results as given in patent publication US20070203098A1, “Pten Inhibitors” (priority 2004, published 2007).
Like-named read-outs stand apart in the source and are kept apart here.

Tests used:
Assay type in all cases: biochemical
PTP1B = target: T1, PTP1B (Homo sapiens, UniProt P18031); assay: PTP1B Inhibition Assay: IC50 Determinations
T1 sequence (P18031 1-435): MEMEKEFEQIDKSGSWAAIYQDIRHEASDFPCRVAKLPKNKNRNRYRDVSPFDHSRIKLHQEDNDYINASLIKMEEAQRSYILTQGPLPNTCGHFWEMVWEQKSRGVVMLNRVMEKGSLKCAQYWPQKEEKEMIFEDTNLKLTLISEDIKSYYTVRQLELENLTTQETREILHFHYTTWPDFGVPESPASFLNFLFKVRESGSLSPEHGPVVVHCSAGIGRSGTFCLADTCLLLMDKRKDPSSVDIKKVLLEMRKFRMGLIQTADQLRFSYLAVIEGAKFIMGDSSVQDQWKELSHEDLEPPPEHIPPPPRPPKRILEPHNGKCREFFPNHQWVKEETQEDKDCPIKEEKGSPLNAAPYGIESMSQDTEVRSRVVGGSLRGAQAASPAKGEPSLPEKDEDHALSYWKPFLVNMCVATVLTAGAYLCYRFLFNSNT

PTEN [1] = target: T2, PTEN (Homo sapiens, UniProt P60484); assay: PTEN Inhibition Assay: IC50 Determinations
T2 sequence (P60484 whole entry, species assumed): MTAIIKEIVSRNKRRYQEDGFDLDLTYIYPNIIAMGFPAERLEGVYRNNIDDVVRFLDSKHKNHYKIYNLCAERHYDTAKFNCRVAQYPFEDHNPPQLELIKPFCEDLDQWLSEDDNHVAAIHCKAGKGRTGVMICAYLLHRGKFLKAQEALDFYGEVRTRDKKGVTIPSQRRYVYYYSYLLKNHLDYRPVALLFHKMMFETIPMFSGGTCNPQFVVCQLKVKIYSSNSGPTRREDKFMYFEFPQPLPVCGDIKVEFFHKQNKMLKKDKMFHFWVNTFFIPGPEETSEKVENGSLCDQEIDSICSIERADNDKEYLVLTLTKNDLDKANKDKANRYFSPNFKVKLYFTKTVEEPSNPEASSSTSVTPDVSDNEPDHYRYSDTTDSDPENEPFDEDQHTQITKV

PTEN [2] = target: T2, PTEN; assay: PTEN Inhibition Assay: General Screening
[3] = read-out: % Inhibition @ 250 uM
[4] = 250 uM, Table 15 diamides, furazan core, read-out: % Inhibition @ 250 uM
[5] = 250 uM, Table 27 isatins, read-out: % Inhibition @250 uM
[6] = read-out: % Inhibition at 250 uM

Structure (SMILES)	IC50 (PTEN [1])	inhibition at 250 µM (PTEN [2]; [3])	IC50 (PTP1B; Table 29, read-out: PTP1B IC50)	IC50 (PTEN [1]; Table 29, read-out: PTEN IC50)	other results
O=C1C(=O)c2ccccc2-c2ccccc21 [SF1721-000]	3.4 µM	99.7%			IC50 (PTP1B): 17 µM
O=C1C(=O)c2cc(NCc3ccccc3)ccc2-c2ccccc21 [SF1800-000]	0.862 µM	98%			IC50 (PTP1B): < 10 µM
Cc1ccc(C)c(OCC(=O)Nc2nonc2NC(=O)COc2cc(C)ccc2C)c1 [SF1609-000]			5.8 µM	80 to 113 µM	inhibition at 250 µM (PTEN [2]; [4]): 58 to 80%
O=C1C(=O)c2cc(NS(=O)(=O)c3cccs3)ccc2-c2ccccc21 [SF1798-000]	0.369 µM	93.6%			IC50 (PTP1B): < 10 µM
O=C(COc1ccccc1)NC1CCCCC1NC(=O)COc1ccccc1 (centres unmarked) [SF1647-000]					inhibition at 250 µM (PTEN [2]; 250 uM, Table 16, read-out: % Inhibition @ 250 uM): 2.2%
O=C(COc1ccc(Cl)cc1)Nc1ccc2c(c1)C(=O)C(=O)c1ccccc1-2 [SF1790-000]	2.6 µM	99.2%			IC50 (PTP1B): 1 to 10 µM
O=C1C(=O)N(Cc2ccc(Cl)cc2Cl)c2ccc([N+](=O)[O-])cc21 [SF1783-000]			1.1 µM	4.6 µM	inhibition at 250 µM (PTEN [2]; [5]): 97.8%
CC(C)c1ccccc1OCC(=O)Nc1ccc2c(c1)C(=O)C(=O)c1ccccc1-2 [SF1772-000]		99.4%	0.681 µM	0.435 µM	
Oc1cc2ccccc2c2ccccc12 [SF1734-000]	33 µM				
O=C1Nc2ccc(Br)cc2C1=O [SF1814-000]	44.9 µM				IC50 (PTP1B): 10 to 100 µM; inhibition at 250 µM (PTEN [2]; [5]): 97.6%
O=C(COc1ccccc1[N+](=O)[O-])Nc1ccc2c(c1)C(=O)C(=O)c1ccccc1-2 [SF1796-000]		99%	< 10 µM	0.65 µM	
CC(C)c1ccccc1OCC(=O)Nc1nonc1NC(=O)COc1ccccc1C(C)C [SF1617-000]			13.6 µM	66 to 84 µM	inhibition at 250 µM (PTEN [2]; [4]): 3 to 81%
O=C(O)C(=O)Nc1ccc2c(c1)C(=O)C(=O)c1ccccc1-2 [SF1806-000]	12.1 µM	98.1%			IC50 (PTP1B): 1 to 10 µM
CC(C)(C)c1ccc(C(=O)Nc2ccc3c(c2)C(=O)C(=O)c2ccccc2-3)cc1 [SF1803-000]		83%	< 1 µM	14.6 µM	
COc1cccc(OCC(=O)Nc2ccc3c(c2)C(=O)C(=O)c2ccccc2-3)c1 [SF1788-000]		96.9%	< 1 µM	0.41 µM	
CCOC(=O)CNC(=O)C(c1ccc2ncccc2c1)N(CC1CCCO1)C(=O)c1snc(C(N)=O)c1N (centres unmarked) [SF1566-000]					inhibition at 250 µM (PTEN [2]; 250 uM, Table 23 polyamides, read-out: % Inhibition @250 uM): 70.6%
O=C1CC(S(=O)(=O)O)c2ccccc2C1=O (centres unmarked) [SF1735-000]			> 250 µM		IC50 (PTEN [1]; Table 28, read-out: PTEN IC50): 20 µM
CC12CCC(C)(O1)C(C(=O)O)C2C(=O)O (centres unmarked) [SF1676-000, 1,4-Dimethylendothall, reference compound]					inhibition at 250 µM (PTEN [2]; [6]): 3.3%
Cc1cc(C)cc(S(=O)(=O)Nc2ccc3c(c2)C(=O)C(=O)c2ccccc2-3)c1 [SF1801-000]	1.01 µM	95.3%			IC50 (PTP1B): < 10 µM
CC1(C)C(C=C(Cl)Cl)[C@H]1C(=O)O[C@@H](C#N)c1cccc(Oc2ccccc2)c1 (stereo in doubt) [SF1687-000, Cypermethrin, reference compound]					inhibition at 250 µM (PTEN [2]; [6]): -5.9%
Nc1ccc2c(c1)C(=O)C(=O)c1ccccc1-2 [SF1789-000]	0.776 µM	99%			IC50 (PTP1B): 2.97 µM
O=C1Nc2ccc(Br)cc2C1O (centres unmarked) [SF1818-000]			< 10 µM	31.7 µM	inhibition at 250 µM (PTEN [2]; [5]): 97.8%
COc1ccccc1OCC(=O)Nc1ccc2c(c1)C(=O)C(=O)c1ccccc1-2 [SF1787-000]		94.7%	< 1 µM	0.548 µM	
O=C1Nc2ccc(Cl)cc2C1=O [SF1816-000]			10 to 100 µM	80.7 µM	inhibition at 250 µM (PTEN [2]; [5]): 95%
COc1ccc(OCC(=O)Nc2ccc3c(c2)C(=O)C(=O)c2ccccc2-3)cc1 [SF1751-000]		99.2%	3 µM	0.3 µM	
CC(C)C(C(=O)OC(C#N)c1cccc(Oc2ccccc2)c1)c1ccc(Cl)cc1 (centres unmarked) [SF1683-000, Fenvalerate, reference compound]					inhibition at 250 µM (PTEN [2]; [6]): -25.5%
Cc1cccc(-n2cnc(C(=O)NNC(=O)c3ccc(C(C)(C)C)cc3)c2)n1 [SF1708-000]			60 µM	50 µM	inhibition at 250 µM (PTEN [2]; 250 uM, Table 22 imidazoles, read-out: % Inhibition at 250 uM): 57 to 95%
